Reference: patent publication US20110059977A1 (priority 2006, published 2011)
In brackets after ≈: the same amount, converted by molar mass. Read-outs that look alike come from different tables or passages of the source.

Columns and labels:
[1] = tested on: Mycobacterium bovis BCG; experiment: microbe, parasite or virus in culture; format: cell-based; conditions: for MIC: Mycobacterium tuberculosis variant bovis BCG, BCG, 144 h
[2] = tested on: mc^2155 strain of M. smegmatis; experiment: In vitro assays on Mycobacterium smegmatis (MIC, resazurin coloration microdilution method); format: cell-based
Method: All molecules to be tested are prepared in dimethylsulfoxide (DMSO) at a concentration of 50 mg/ml and frozen until use.
20 μl of each dilution for each molecule are prepared in 100 μl of the Dubos culture medium (Difco, USA), and then distributed into 96 well plates, at a concentration between 100-0.75 μg/ml.
Control wells containing DMSO alone and ethambutol (Etibi®, Myambutol®) or ofloxacine (synthesis antibiotic belonging to the fluoroquinolone family) are included at a concentration between […].
The plates are covered, sealed and incubated at 37° C. during 48 hours.
Minimal Inhibitory Concentrations (MIC) are determined using the resazurin coloration microdilution method. The powdery resazurin salt (Sigma) is prepared at a concentration of 0.01% (weight/vol) in distilled water, and the solution is then sterilized by 0.22 μm membrane filtration, and kept at 4° C. during one week.
Into the plates as incubated during 48 hours, 30 μl of a resazurin solution are added in each well. The plates are then incubated at 37° C. during 24 hours. The colour variation from blue to pink is indicative of a decrease in resazurin which corresponds to the development of the bacterial colony. The MIC is determined as being the lowest concentration to prevent a colour change. The optical density of each well is measured at 530-630 nm using a micro-plate reader, The MIC is determined by drawing the dose-optical density response curve.

[3] = tested on: M. tuberculosis H37Rv; experiment: In vitro tests on Mycobacterium tuberculosis (MIC in 7H11 agar medium)
[4] = tested on: Mycobacterium bovis BCG; format: in vivo, C57B1/6 female mice; conditions: BCG-infected mice, 20 mg/kg/day intraperitoneally, 5 days
[5] = tested on: M. avium 101; experiment: In vitro tests on Mycobacterium avium (MIC in 7H11 agar medium); format: cell-based; conditions: for MIC: Mycobacterium avium, 101, read-out: MIC on Mycobacterium avium
Excerpt: All tests are repeated three times.

[6] = tested on: M. smegmatis; conditions: cited from earlier work
[7] = read-out: Minimal Inhibitory Concentration MIC (μg/mL)
[8] = read-out: Minimal Inhibitory Concentration MIC (μmol/L)
[9] = Mycobacterium bovis BCG, 6 days at 37° C., 7H9 medium

| Compound | MIC [1, 7] [µg/mL] | MIC [1, 8] [µmol/L] | Activity against Mycobacterium bovis BCG in vitro (in words) [1] | further results |
| --- | --- | --- | --- | --- |
| Nc1cc(=O)n2c3ccccc3c3ccnc1c32 | 10 | 42.5 | – | – |
| COc1ccc2c(c1)c1ccnc3ccc(=O)n2c31 [10-methoxy-canthin-6-one] | 7.5 | 30 | – | – |
| O=c1c2ccccc2c2nccc3c4ccccc4n1c32 [Benzo[e]canthin-6-one] | 2.5 to 5 | 9.2 to 18.4 | most active | – |
| O=c1ccc2nccc3c4ccccc4n1c23 [Canthin-6-one] | 7.5 | 34.1 | most active | Efficiency against Mycobacterium smegmatis (in words) [2]: efficient; Activity against Mycobacterium bovis BCG in vitro (in words) ([1]; listed as Canthin-5-one): surprising efficiency; Efficiency against Mycobacterium tuberculosis (in words) [3]: efficient; In vivo antituberculous efficiency (number of bacteria in spleen, liver and lungs; in words) [4]: efficient; Efficiency against Mycobacterium avium (in words) [5]: efficient |
| O=c1ccc2c3c(cc[n+]2CCBr)c2ccccc2n13.[Br-] [N-bromoéthyl-canthin-6-one bromide] | 1 to 5 | 3 to 15.3 | most active | – |
| O=c1c2ccccc2c2c3c(cc[n+]2[O-])c2ccccc2n13 [N-oxide-benzo[e]canthin-6-one] | 10 | 34.8 | – | – |
| O=c1ccc2c3c(cc[n+]2[O-])c2ccccc2n13 [N-oxide-canthin-6-one] | 2.5 to 5 | 10.6 to 21.2 | most active | – |
| O=c1c2nccnc2c2nccc3c4ccccc4n1c32 [Pyrazine[e]canthin-6-one] | 10 | 36.8 | – | – |
| NNC(=O)c1ccncc1 [isoniazide, reference compound] | 0.1 | 0.73 | – | Minimal Inhibitory Concentration MIC (μg/mL) [1, 9]: 0.1 µg/mL; Susceptibility of M. smegmatis ([6]; isoniazide 10 μg/mL): resistant; MIC [5]: 0.1 µg/mL (≈ 0.729 µM) |
| CC1COc2c(N3CCN(C)CC3)c(F)cc3c(=O)c(C(=O)O)cn1c23 (stereo not shown) [ofloxacin] | – | – | – | MIC ([2]; Mycolicibacterium smegmatis, mc^2155 strain, Dubos medium, resazurin, read-out: MIC (CMI) on Mycobacterium smegmatis): 1 µg/mL (≈ 2.77 µM); MIC on Mycobacterium tuberculosis ([3]; H37Rv, 7H11 agar, 21-30 days at 37° C.): 1 µg/mL (≈ 2.77 µM); MIC [5]: 6.2 µg/mL (≈ 17.2 µM) |
| ethambutol [reference compound] | – | – | – | MIC (CMI) on Mycobacterium smegmatis ([2]; mc^2155 strain, Dubos medium, resazurin): 0.5 µg/mL; Minimal Inhibitory Concentration MIC (μg/mL) [1, 9]: 5 µg/mL; Minimal Inhibitory Concentration MIC (μmol/L) [1, 9]: 24.5 µmol/L; Susceptibility of M. smegmatis ([6]; ethambutol 5 μg/mL): reacts |
